Reference: EP0644194A1, “PYRIDOTHIAZINEACETIC ACID COMPOUND, PROCESS FOR PRODUCING THE SAME, AND USE THEREOF” (THE GREEN CROSS CORPORATION, priority 1993, dated 1994)
Where two headings read alike, the source gives them in different places. Marks after values point to notes of the source that are not given here.

Key:
[1] = target: T1, aldose reductase (Sus scrofa, UniProt P80276); experiment: Aldose reductase inhibitory action (method of S. Hayman et al., absorbance change at 340 nm); type: biochemical, swine
T1 construct: swine lenses freeze-stored at -80°C were homogenized with distilled water; from tissue; host or cells: swine lens
Description: That is, swine lenses freeze-stored at -80°C were homogenized with distilled water and cetrifuged at 10,000 G for 15 minutes. The supernatant was prepared into a 40% ammonium sulfate solution and subjected to cetrifugation at 10,000 G for 10 minutes.
The activity of aldose reductase was determined by the above-mentioned method of S. Hayman et al. That is, the above-mentioned enzyme solution (25 µl) and a drug solution (25 µl) dissolved in 1% DMSO at various concentrations were added to a 40 mM phosphate buffer (200 µl, pH 6.2) containing final concentrations of 0.4 M lithium sulfate, 0.1 mM NADPH (reduced type nicotinamide adenine dinucleotide phosphate) and 3 mM dl-glyceraldehyde as a substrate. […] The test drug number indicates the example number to be mentioned later. […]

[2] = tested on: sorbitol accumulation in tissues; experiment: Inhibitory action on sorbitol accumulation in tissues of rats with experimental diabetes (streptozotocin); type: in vivo, Sprague-Dawley rats; settings: percent of control (100%), oral at 4, 8 and 24 hours after streptozotocin, Example 9 at 10 mg/kg, EPALRESTAT at 30 mg/kg, 3 hours after final administration; for Sorbitol accumulation, nerve: sciatic nerve
Description: Sprague-Dawley rats (male, 6 weeks old, 5-6 per group) were fasted for 18 hours and injected with streptozotocin (SIGMA, 60 mg/kg) via the tail vein under etherization to prepare rats with diabetes.
The test drugs were orally administered at 4, 8 and 24 hours after the injection of streptozotocin. The compound of Example 9 was administered at 10 mg/kg and EPALRESTAT was administered at 30 mg/kg as a 0.5% carboxymethylcellulose suspension, respectively. During the administrations, the rats were raised under free access to feed and water and the sorbitol content in the tissues (erythrocytes, sciatic nerve, lens) was determined 3 hours after the final administration, according to the enzyme method of H.Y. Bergmeyer et al. [Methods of Enzymatic Analysis, vol. 3, 1323-1330 (1974)] with the use of SDH (sorbitol dehydrogenase) and NAD (β-nicotinamide adenine dinucleotide). The results (sorbitol accumulation) are expressed in percent (%) relative to the value of a control group administered with a 0.5% carboxymethylcellulose solution (solvent) instead of the drug, which was taken as 100%.

[3] = tested on: ICR mice; experiment: Acute toxicity of a single oral dose; type: in vivo; settings: 300 mg/kg single oral dose, male ICR mice, observation for 14 days
Description: Normal ICR mice (male, 7 weeks old, 5 per group) were fasted for 18 hours and the compound (300 mg/kg) of Example 9 was orally administered as a 0.5% carboxymethylcellulose suspension. To the control group, a 0.5% carboxymethylcellulose solution alone was orally administered and observation was continued for 14 days thereafter, during which period the mice were allowed to take feed and water freely.

[4] = swine lens enzyme, 3 mM dl-glyceraldehyde as substrate, 0.1 mM NADPH, pH 6.2, 25°C, read-out: IC₅₀

| SMILES | IC50 [1, 4] [nM] | IC50 [1] [nM] | Sorbitol accumulation, erythrocytes [2] | Sorbitol accumulation, lens [2] | Sorbitol accumulation, nerve [2] | death cases [3] | body weight transition ([3]; compared with control group) |
| --- | --- | --- | --- | --- | --- | --- | --- |
| O=C(O)CC1Sc2ncccc2N(Cc2nc3c(Cl)c(Cl)ccc3s2)C1=O (stereo not shown) [Compound of Ex.12, 2-[4-(4,5-Dichlorobenzothiazol-2-yl)methyl-3-oxo-3,4-dihydro-2H-pyrido[2,3-b][1,4]thiazin-2-yl]acetic acid] | 12 |  |  |  |  |  |  |
| O=C(O)CC1Sc2ncccc2N(Cc2nc3c(F)c(F)ccc3s2)C1=O (stereo not shown) [Compound of Ex.10, 2-[4-(4,5-Difluorobenzothiazol-2-yl)methyl-3-oxo-3,4-dihydro-2H-pyrido[2,3-b][1,4]thiazin-2-yl]acetic acid] | 12 |  |  |  |  |  |  |
| O=C(O)CC1Sc2ncccc2N(Cc2nc3c(F)c(F)cc(F)c3s2)C1=O (stereo not shown) [Compound of Ex. 9, 2-[4-(4,5,7-Trifluorobenzothiazol-2-yl)methyl-3-oxo-3,4-dihydro-2H-pyrido[2,3-b][1,4]thiazin-2-yl]acetic acid] | 11 |  | 59.0* % | 66.2* % | 3.3* % | no death case | showed transition in the same manner as in the control group |

Second part, led by results:

| IC50 [1, 4] [nM] | IC50 [1] [nM] | SMILES | Sorbitol accumulation, erythrocytes [2] | Sorbitol accumulation, lens [2] | Sorbitol accumulation, nerve [2] | death cases [3] | body weight transition ([3]; compared with control group) |
| --- | --- | --- | --- | --- | --- | --- | --- |
| 12 |  | O=C(O)CC1Sc2cnccc2N(Cc2nc3c(F)c(F)cc(F)c3s2)C1=O (stereo not shown) [Compound of Ex.14, 2-[4-(4,5,7-Trifluorobenzothiazol-2-yl)methyl-3-oxo-3,4-dihydro-2H-pyrido[3,4-b][1,4]thiazin-2-yl]acetic acid] |  |  |  |  |  |
|  | 21 | CC(/C=C1\SC(=S)N(CC(=O)O)C1=O)=C\c1ccccc1 [EPALRESTAT, reference compound] | 66.5% | 89.1% | 99.9% |  |  |
